Experimental data from PMC5218480 (PLoS ONE, 2017).

Tested on: MV-4-11 cells
Experiment: Gene expression microarray analysis (Affymetrix PrimeView) and GSEA
Type: cell-based, human
Design: RFU PODN (11730768_x_at) / Fold change /veh PODN (11730768_x_at) / RFU LINC00158 (11744669_a_at) / Fold change /veh LINC00158 (11744669_a_at) / RFU DUSP10 (11751237_a_at) / Fold change /veh DUSP10 (11751237_a_at) / RFU ID3 (11757404_x_at) / Fold change /veh ID3 (11757404_x_at) / RFU PLEKHG5 (11737974_s_at) / Fold change /veh PLEKHG5 (11737974_s_at) / RFU LRRC4B (11730491_at) / Fold change /veh LRRC4B (11730491_at) / RFU GIMAP4 (11747438_a_at) / Fold change /veh GIMAP4 (11747438_a_at) / RFU KRT8 (11758183_x_at) / Fold change /veh KRT8 (11758183_x_at) / RFU CNN1 (11734310_a_at) / Fold change /veh CNN1 (11734310_a_at) / RFU VPS37D (11726825_at) / Fold change /veh VPS37D (11726825_at) / RFU C10orf10 (11716522_x_at) / Fold change /veh C10orf10 (11716522_x_at) / RFU KIR2DL2 /// KIR2DL4 /// KIR2DL5A /// KIR2DL5B /// KIR2DS1 /// KIR2DS2 /// KIR2DS3 /// KIR2DS4 /// KIR3DL3 /// KIR3DL3 /// KIR3DS1 (11738374_at) / Fold change /veh KIR2DL2 /// KIR2DL4 /// KIR2DL5A /// KIR2DL5B /// KIR2DS1 /// KIR2DS2 /// KIR2DS3 /// KIR2DS4 /// KIR3DL3 /// KIR3DL3 /// KIR3DS1 (11738374_at) / RFU C1QL1 (11718748_at) / Fold change /veh C1QL1 (11718748_at) / RFU TMPRSS4 (11747572_a_at) / Fold change /veh TMPRSS4 (11747572_a_at) / RFU HAMP (11756126_x_at) / Fold change /veh HAMP (11756126_x_at) / RFU RNFT2 (11725882_a_at) / Fold change /veh RNFT2 (11725882_a_at) / RFU NR4A2 (11747474_a_at) / Fold change /veh NR4A2 (11747474_a_at) / RFU ABCC12 (11746883_a_at) / Fold change /veh ABCC12 (11746883_a_at) / RFU TMEM136 (11760407_x_at) / Fold change /veh TMEM136 (11760407_x_at) / RFU CLDN22 /// WWC2 (11732394_at) / Fold change /veh CLDN22 /// WWC2 (11732394_at) / RFU HLA-DPB1 (11760878_x_at) / Fold change /veh HLA-DPB1 (11760878_x_at) / RFU SPINT1 (11716480_a_at) / Fold change /veh SPINT1 (11716480_a_at) / RFU GAP43 (11754022_s_at) / Fold change /veh GAP43 (11754022_s_at) / RFU A4GNT (11735810_at) / Fold change /veh A4GNT (11735810_at) / RFU PRB3 (11715151_x_at) / Fold change /veh PRB3 (11715151_x_at) / RFU TUBB4B (11761932_at) / Fold change /veh TUBB4B (11761932_at) / RFU CAPN14 (11732068_a_at) / Fold change /veh CAPN14 (11732068_a_at) / RFU TMCC2 (11721928_a_at) / Fold change /veh TMCC2 (11721928_a_at) / RFU IRGQ (11745062_a_at) / Fold change /veh IRGQ (11745062_a_at) / RFU FAM174B (11720279_a_at) / Fold change /veh FAM174B (11720279_a_at) / RFU TMPRSS4 (11748680_a_at) / Fold change /veh TMPRSS4 (11748680_a_at) / RFU FAM212B (11763350_a_at) / Fold change /veh FAM212B (11763350_a_at) / RFU PLEKHG5 (11743358_a_at) / Fold change /veh PLEKHG5 (11743358_a_at) / RFU ZSCAN30 (11745921_a_at) / Fold change /veh ZSCAN30 (11745921_a_at) / RFU CMKLR1 (11741424_a_at) / Fold change /veh CMKLR1 (11741424_a_at) / RFU LOC101060620 /// MAPK8IP1 (11723275_at) / Fold change /veh LOC101060620 /// MAPK8IP1 (11723275_at) / RFU SPTSSB (11747773_x_at) / Fold change /veh SPTSSB (11747773_x_at) / RFU PRSS12 (11739890_at) / Fold change /veh PRSS12 (11739890_at) / RFU BIN1 (11741810_x_at) / Fold change /veh BIN1 (11741810_x_at) / RFU WNT11 (11732464_a_at) / Fold change /veh WNT11 (11732464_a_at) / RFU C10orf10 (11716521_a_at) / Fold change /veh C10orf10 (11716521_a_at) / RFU C5orf56 (11738089_at) / Fold change /veh C5orf56 (11738089_at) / RFU CYB561 (11721691_x_at) / Fold change /veh CYB561 (11721691_x_at) / RFU ANKRD19P (11752326_a_at) / Fold change /veh ANKRD19P (11752326_a_at) / RFU OR2T12 /// OR2T33 /// OR2T8 (11738714_s_at) / Fold change /veh OR2T12 /// OR2T33 /// OR2T8 (11738714_s_at) / RFU VCAN (11748164_a_at) / Fold change /veh VCAN (11748164_a_at) / RFU JSRP1 (11732532_at) / Fold change /veh JSRP1 (11732532_at) / RFU KRTAP10-11 (11738290_x_at) / Fold change /veh KRTAP10-11 (11738290_x_at) / RFU MYO3A (11730013_a_at) / Fold change /veh MYO3A (11730013_a_at) / RFU EBF3 (11725865_a_at) / Fold change /veh EBF3 (11725865_a_at) / RFU CAMK2N1 (11719241_x_at) / Fold change /veh CAMK2N1 (11719241_x_at) / RFU C5orf56 (11738088_a_at) / Fold change /veh C5orf56 (11738088_a_at) / RFU OLFML3 (11715873_a_at) / Fold change /veh OLFML3 (11715873_a_at) / RFU LOC100653217 /// NTM (11731650_a_at) / Fold change /veh LOC100653217 /// NTM (11731650_a_at) / RFU MAPK11 (11762145_a_at) / Fold change /veh MAPK11 (11762145_a_at) / RFU FIZ1 (11724087_x_at) / Fold change /veh FIZ1 (11724087_x_at) / RFU OASL (11726364_x_at) / Fold change /veh OASL (11726364_x_at) / RFU SOX15 (11748057_x_at) / Fold change /veh SOX15 (11748057_x_at) / RFU CD79A (11719716_a_at) / Fold change /veh CD79A (11719716_a_at) / RFU HIST1H1D (11736915_at) / Fold change /veh HIST1H1D (11736915_at) / RFU CASKIN2 (11723855_a_at) / Fold change /veh CASKIN2 (11723855_a_at) / RFU LOC730098 (11760151_x_at) / Fold change /veh LOC730098 (11760151_x_at) / RFU OR4N2 (11742367_at) / Fold change /veh OR4N2 (11742367_at) / RFU PRRT2 (11749266_a_at) / Fold change /veh PRRT2 (11749266_a_at) / RFU SNX32 (11753110_a_at) / Fold change /veh SNX32 (11753110_a_at) / RFU CDHR5 (11726645_a_at) / Fold change /veh CDHR5 (11726645_a_at) / RFU RCAN1 (11760418_a_at) / Fold change /veh RCAN1 (11760418_a_at) / RFU FAM167A (11723789_a_at) / Fold change /veh FAM167A (11723789_a_at) / RFU FAM26E (11764081_at) / Fold change /veh FAM26E (11764081_at) / RFU ISYNA1 (11749810_s_at) / Fold change /veh ISYNA1 (11749810_s_at) / RFU ACY1 (11761880_at) / Fold change /veh ACY1 (11761880_at) / RFU 11764098_at / Fold change /veh 11764098_at / RFU SAMD14 (11745864_x_at) / Fold change /veh SAMD14 (11745864_x_at) / RFU NPB (11741838_a_at) / Fold change /veh NPB (11741838_a_at) / RFU TMPRSS6 (11731388_a_at) / Fold change /veh TMPRSS6 (11731388_a_at) / RFU KRTAP10-2 (11738614_at) / Fold change /veh KRTAP10-2 (11738614_at) / RFU ARHGAP8 /// PRR5-ARHGAP8 (11727945_x_at) / Fold change /veh ARHGAP8 /// PRR5-ARHGAP8 (11727945_x_at) / RFU KRTAP5-7 /// NADSYN1 (11734609_at) / Fold change /veh KRTAP5-7 /// NADSYN1 (11734609_at) / RFU RASL12 (11751679_a_at) / Fold change /veh RASL12 (11751679_a_at) / RFU CDKN2B (11736163_a_at) / Fold change /veh CDKN2B (11736163_a_at) / RFU PRF1 (11729649_at) / Fold change /veh PRF1 (11729649_at) / RFU, ZNF638 /// ZNF638-IT1 / Fold change vs veh, ZNF638 /// ZNF638-IT1 / RFU, PANK3 / Fold change vs veh, PANK3 / RFU, SH3YL1 / Fold change vs veh, SH3YL1 / RFU, ZEB2 / Fold change vs veh, ZEB2 / RFU, NRIP1 / Fold change vs veh, NRIP1 / RFU, PTTG1IP / Fold change vs veh, PTTG1IP / RFU, CAPN2 / Fold change vs veh, CAPN2 / RFU, MED14 / Fold change vs veh, MED14 / RFU, SNORA58 / Fold change vs veh, SNORA58 / RFU, C1orf63 / Fold change vs veh, C1orf63 / RFU, LRRFIP1 / Fold change vs veh, LRRFIP1 / RFU, NDUFAF7 / Fold change vs veh, NDUFAF7 / RFU, SLC12A2 / Fold change vs veh, SLC12A2 / RFU, IBTK / Fold change vs veh, IBTK / RFU, ESF1 / Fold change vs veh, ESF1 / Fold change vs veh, TMEM50B / RFU, TAOK1 / Fold change vs veh, TAOK1 / RFU, ACBD3 / Fold change vs veh, ACBD3 / RFU, TMA16 / Fold change vs veh, TMA16 / RFU, RWDD3 / Fold change vs veh, RWDD3 / RFU, BCAT1 / Fold change vs veh, BCAT1 / RFU, EDEM3 / Fold change vs veh, EDEM3 / RFU, TMEM33 / Fold change vs veh, TMEM33 / RFU, WDR75 / Fold change vs veh, WDR75 / RFU, AHCTF1 / Fold change vs veh, AHCTF1 / RFU, TFRC / Fold change vs veh, TFRC / RFU, ZDHHC17 / Fold change vs veh, ZDHHC17 / RFU, NOM1 / Fold change vs veh, NOM1 / RFU, ARL8B / Fold change vs veh, ARL8B / RFU, ZBTB11 / Fold change vs veh, ZBTB11 / RFU, TAMM41 / Fold change vs veh, TAMM41 / RFU, KIAA1704 /// LOC100996395 / Fold change vs veh, KIAA1704 /// LOC100996395 / RFU, ING1 / Fold change vs veh, ING1 / RFU, TRMT61B / Fold change vs veh, TRMT61B / RFU, FUBP3 / Fold change vs veh, FUBP3 / RFU, TP53 / Fold change vs veh, TP53 / RFU, TNKS2 / Fold change vs veh, TNKS2 / RFU, ZFP14 / Fold change vs veh, ZFP14 / RFU, ACTR2 / Fold change vs veh, ACTR2 / RFU, PPP3R1 / Fold change vs veh, PPP3R1 / RFU, PIK3R1 / Fold change vs veh, PIK3R1 / RFU, HNRNPA1 / Fold change vs veh, HNRNPA1 / RFU, RNF170 / Fold change vs veh, RNF170 / RFU, ZNF28 / Fold change vs veh, ZNF28 / RFU, RNGTT / Fold change vs veh, RNGTT / RFU, OGT / Fold change vs veh, OGT / RFU, BRD1 / Fold change vs veh, BRD1 / RFU, MARS / Fold change vs veh, MARS / RFU, ZNF655 / Fold change vs veh, ZNF655 / RFU, FAHD1 / Fold change vs veh, FAHD1 / RFU, BDP1 / Fold change vs veh, BDP1 / RFU, LRRCC1 / Fold change vs veh, LRRCC1 / RFU, ARID1A / Fold change vs veh, ARID1A / RFU, ZNF146 / Fold change vs veh, ZNF146 / RFU, ZNF330 / Fold change vs veh, ZNF330 / RFU, GPN3 / Fold change vs veh, GPN3 / RFU, C9orf123 / Fold change vs veh, C9orf123 / RFU, N4BP2L2 / Fold change vs veh, N4BP2L2 / RFU, ARFIP1 / Fold change vs veh, ARFIP1 / RFU, FAM179B / Fold change vs veh, FAM179B / RFU, BCL10 / Fold change vs veh, BCL10 / RFU, UHRF1BP1L / Fold change vs veh, UHRF1BP1L / RFU, BET1 / Fold change vs veh, BET1 / RFU, CNOT2 / Fold change vs veh, CNOT2 / RFU, ZNF268 / Fold change vs veh, ZNF268 / Fold change vs veh, ZNF507 / RFU, DGCR2 / Fold change vs veh, DGCR2 / RFU, WDSUB1 / Fold change vs veh, WDSUB1 / Fold change vs veh, HSP90B1 /// MIR3652 / RFU, ADSS / Fold change vs veh, ADSS / RFU, GK / Fold change vs veh, GK / RFU, ZNF148 / Fold change vs veh, ZNF148 / RFU, TAF9 / Fold change vs veh, TAF9 / RFU, SLC1A5 / Fold change vs veh, SLC1A5 / RFU, SLMO2 / Fold change vs veh, SLMO2 / RFU, ABCC4 / Fold change vs veh, ABCC4 / RFU, LOC101060439 /// RAP1B / Fold change vs veh, LOC101060439 /// RAP1B / RFU, RFX7 / Fold change vs veh, RFX7 / RFU, GTPBP10 / Fold change vs veh, GTPBP10 / RFU, CNEP1R1 / Fold change vs veh, CNEP1R1 / RFU, BIVM-ERCC5 /// ERCC5 / Fold change vs veh, BIVM-ERCC5 /// ERCC5 / RFU, ILF3 / Fold change vs veh, ILF3 / RFU 11762660_at / Fold change /veh 11762660_at / RFU VCAN (11757783_s_at) / Fold change /veh VCAN (11757783_s_at) / RFU DDX43 (11728927_at) / Fold change /veh DDX43 (11728927_at) / RFU KRT8 (11758188_x_at) / Fold change /veh KRT8 (11758188_x_at) / RFU NKD1 (11759106_at) / Fold change /veh NKD1 (11759106_at) / RFU SRD5A1 (11742802_a_at) / Fold change /veh SRD5A1 (11742802_a_at) / RFU TPSAB1 /// TPSB2 (11721975_s_at) / Fold change /veh TPSAB1 /// TPSB2 (11721975_s_at) / RFU GSTM3 (11746129_a_at) / Fold change /veh GSTM3 (11746129_a_at) / RFU IL23R (11737362_x_at) / Fold change /veh IL23R (11737362_x_at) / RFU TMEM51 (11727254_a_at) / Fold change /veh TMEM51 (11727254_a_at) / RFU PIWIL2 (11732686_x_at) / Fold change /veh PIWIL2 (11732686_x_at) / RFU ORM1 (11744905_x_at) / Fold change /veh ORM1 (11744905_x_at) / RFU CCDC152 (11743942_at) / Fold change /veh CCDC152 (11743942_at) / RFU ECM1 (11717891_a_at) / Fold change /veh ECM1 (11717891_a_at) / RFU IL23R (11748794_a_at) / Fold change /veh IL23R (11748794_a_at) / RFU TNFAIP8L3 (11732012_x_at) / Fold change /veh TNFAIP8L3 (11732012_x_at) / RFU MBOAT4 (11741988_at) / Fold change /veh MBOAT4 (11741988_at) / RFU 11764193_at / Fold change /veh 11764193_at / RFU TMEM53 (11763286_at) / Fold change /veh TMEM53 (11763286_at) / RFU MAGEB2 (11727129_at) / Fold change /veh MAGEB2 (11727129_at) / RFU TMEM200A (11744735_a_at) / Fold change /veh TMEM200A (11744735_a_at) / RFU CCDC152 (11751479_a_at) / Fold change /veh CCDC152 (11751479_a_at) / RFU FAM211A (11726209_a_at) / Fold change /veh FAM211A (11726209_a_at) / RFU RGS16 (11746705_a_at) / Fold change /veh RGS16 (11746705_a_at) / RFU VCAN (11755009_s_at) / Fold change /veh VCAN (11755009_s_at) / RFU RHOB (11743442_s_at) / Fold change /veh RHOB (11743442_s_at) / RFU RGS16 (11720943_a_at) / Fold change /veh RGS16 (11720943_a_at) / RFU RGS16 (11720944_at) / Fold change /veh RGS16 (11720944_at) / RFU, VPS4B / Fold change vs veh, VPS4B / RFU, CREB1 / Fold change vs veh, CREB1 / RFU, DNAJC13 / Fold change vs veh, DNAJC13 / RFU, GNAQ / Fold change vs veh, GNAQ / RFU, CDK5R1 / Fold change vs veh, CDK5R1 / RFU, ZRANB3 / Fold change vs veh, ZRANB3 / RFU, CUL4A / Fold change vs veh, CUL4A / RFU, CCNY / Fold change vs veh, CCNY / RFU, UFL1 / Fold change vs veh, UFL1 / RFU, COG3 / Fold change vs veh, COG3 / RFU, DIAPH2 / Fold change vs veh, DIAPH2 / RFU, SKA2 / Fold change vs veh, SKA2 / RFU, AFF3 / Fold change vs veh, AFF3 / RFU, LMF1 / Fold change vs veh, LMF1 / RFU, IPO11 / Fold change vs veh, IPO11 / RFU, DFFB / Fold change vs veh, DFFB / RFU, FOXP1 / Fold change vs veh, FOXP1 / RFU, CARD8 / Fold change vs veh, CARD8 / RFU, STRN3 / Fold change vs veh, STRN3 / RFU, ADK / Fold change vs veh, ADK / RFU, RASSF2 / Fold change vs veh, RASSF2 / RFU, WIPF1 / Fold change vs veh, WIPF1 / RFU, LARP1B / Fold change vs veh, LARP1B / RFU, RASA1 / Fold change vs veh, RASA1 / RFU, RB1 / Fold change vs veh, RB1 / RFU, PPFIA1 / Fold change vs veh, PPFIA1 / RFU, MAT2A / Fold change vs veh, MAT2A / RFU, CCT5 / Fold change vs veh, CCT5 / RFU, WDR92 / Fold change vs veh, WDR92 / RFU, CUX1 / Fold change vs veh, CUX1 / RFU, TTC7A / Fold change vs veh, TTC7A / RFU, TMEM135 / Fold change vs veh, TMEM135 / RFU, DEPTOR / Fold change vs veh, DEPTOR / RFU, CPM / Fold change vs veh, CPM / RFU, DNAJB6 / Fold change vs veh, DNAJB6 / RFU, CACNA2D3 / Fold change vs veh, CACNA2D3 / RFU, DTX4 / Fold change vs veh, DTX4 / RFU, TFCP2 / Fold change vs veh, TFCP2 / RFU, GMCL1 /// GMCL1P1 / Fold change vs veh, GMCL1 /// GMCL1P1 / RFU, AEBP2 / Fold change vs veh, AEBP2 / RFU, SNHG1 /// SNORD22 /// SNORD25 /// SNORD26 /// SNORD27 /// SNORD28 /// SNORD29 /// SNORD31 / Fold change vs veh, SNHG1 /// SNORD22 /// SNORD25 /// SNORD26 /// SNORD27 /// SNORD28 /// SNORD29 /// SNORD31 / Fold change (Aza/veh), C12orf56 (ProbeSet 11735607_a_at) / Fold change (ACY-1035/veh), C12orf56 (ProbeSet 11735607_a_at) / Fold change (Aza/veh), FGFR1OP (ProbeSet 11751329_s_at) / Fold change (ACY-1035/veh), FGFR1OP (ProbeSet 11751329_s_at) / Fold change (Aza/veh), VPS36 (ProbeSet 11739960_a_at) / Fold change (ACY-1035/veh), VPS36 (ProbeSet 11739960_a_at) / RFU SYPL1 (11715823_x_at) / Fold change /veh SYPL1 (11715823_x_at) / RFU IGFBP7 (11715501_s_at) / Fold change /veh IGFBP7 (11715501_s_at) / RFU REEP3 (11722064_at) / Fold change /veh REEP3 (11722064_at) / RFU IGLL1 (11728026_x_at) / Fold change /veh IGLL1 (11728026_x_at): dose or concentration left out as unconfirmed
Conditions: MV-4-11 cells, 48 hours

## Nc1ncn([C@@H]2O[C@H](CO)[C@@H](O)[C@H]2O)c(=O)n1 [azacitidine]
  RFU KRT8 (11758183_x_at): 20.69 RFU
